Where only a bound is given, the exact number is not on record here.

For the test, the target named is T1, Serine/threonine-protein kinase Chk1 (Homo sapiens, UniProt O14757).
T1 sequence (O14757 whole entry): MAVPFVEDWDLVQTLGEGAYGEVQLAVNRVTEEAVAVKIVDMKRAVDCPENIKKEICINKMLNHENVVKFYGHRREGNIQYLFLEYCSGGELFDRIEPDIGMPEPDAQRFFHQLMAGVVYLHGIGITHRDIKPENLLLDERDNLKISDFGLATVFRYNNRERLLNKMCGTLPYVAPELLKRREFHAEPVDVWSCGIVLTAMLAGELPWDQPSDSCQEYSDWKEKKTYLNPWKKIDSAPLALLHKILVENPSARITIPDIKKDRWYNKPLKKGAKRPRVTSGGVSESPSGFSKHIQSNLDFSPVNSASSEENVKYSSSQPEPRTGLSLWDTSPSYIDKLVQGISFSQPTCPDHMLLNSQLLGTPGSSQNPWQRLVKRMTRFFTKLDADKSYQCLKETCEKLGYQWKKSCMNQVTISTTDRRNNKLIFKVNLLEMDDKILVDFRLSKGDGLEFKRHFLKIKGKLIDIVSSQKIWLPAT
The test can be described thus: Kinase Inhibiting Activity Assay: Chk-1 Kinase Inhibiting ActivityThe compounds of the invention were tested for activity against Chk-1 kinase using the materials and protocols set out below.Reaction Buffer:Base Reaction buffer: 20 mM Hepes (pH 7.5), 10 mM MgCl2, 1 mM EGTA, 0.02% Brij35, 0.02 mg/ml BSA, 0.1 mM Na3VO4, 2 mM DTT, 1% DMSO*Required cofactors are added individually to each kinase reactionReaction Procedure:(i) Prepare indicated substrate in freshly prepared Base Reaction Buffer(ii) Deliver any required cofactors to the substrate solution above(iii) Deliver indicated kinase into the substrate solution and gently mix(iv) Deliver compounds in DMSO into the kinase reaction mixture(v) Deliver 33P-ATP (specific activity 0.01 μCi/μl final) into the reaction mixture to initiate the reaction.(vi) Incubate kinase reaction for 120 minutes at room temperature(vii) Reactions are spotted onto P81 ion exchange paper (Whatman #3698-915)(viii) Wash filters extensively in 0.1% phosphoric acid.(ix) Dry filters and measure counts in scintillation counterKinase Information:CHK-1 Genbank Accession # AF016582Recombinant full length construct, N-terminal GST tagged, purified from insect cells.No special measures were taken to activate this kinase.Final concentration in assay=0.5 nMSubstrate: CHKtidePeptide sequence: [[…]]Final concentration in assay=20 μM.
Take `COc1cc(CNC(=O)C2CC2)ccc1-c1cc(Nc2cnc(C#N)cn2)n[nH]1`: the IC50 was found to be 0.59 nM. To `COc1cc(OCc2cocn2)ccc1-c1cc(Nc2cnc(C#N)cn2)n[nH]1` belongs less than 1 nM; to `COc1cc(C2CCCCN2C)ccc1-c1cc(Nc2cnc(C#N)cn2)n[nH]1` (stereo not drawn), 0.51 nM.

Usually IC50 stands for the concentration at which inhibition is half-maximal.

These data come from ChEMBL document CHEMBL5727147, “Pharmaceutical compounds” (2018).
